Measured values reported in the supplement of paper PMC4862054.

System: BT-474
Experiment: normalised response (% of control), CellTiter-Glo; higher = more viable cells (100 = DMSO, 0 = benzethonium chloride kill control)
Conditions: incubation time: 72 h
Outline: (§1)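 Two readouts were taken after 72 h: CellTox Green fluorescence (485/520 nm) first, then CellTiter-Glo luminescence after 10 min at room temperature. Breast cancer cell lines had been seeded as 20 µl suspension into 384-well plates holding compound at 5 concentrations in 10-fold steps across a compound-specific 10,000-fold range. Each value is a normalised signal at a single concentration, with plates scaled to 0.1 % DMSO (100) and a positive kill control (0).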

Point of comparison: `O=[N+]([O-])c1ccc2c(c1)S(=O)(=O)C=C2` [Stattic] (5 nM), normalised response 98.6%. Against it:
- C=CCN(/C=C1/C(=O)O[C@H](COC)[C@@]2(C)C1=C(O)C(=O)C1=C2[C@H](OC(C)=O)C[C@]2(C)C(=O)CC[C@@H]12)CC=C [Sonolisib] (1 nM) — higher, 107%
- C=CCN(/C=C1/C(=O)O[C@H](COC)[C@@]2(C)C1=C(O)C(=O)C1=C2[C@H](OC(C)=O)C[C@]2(C)C(=O)CC[C@@H]12)CC=C [Sonolisib] (10 nM) — higher, 112%
- C=CCN(/C=C1/C(=O)O[C@H](COC)[C@@]2(C)C1=C(O)C(=O)C1=C2[C@H](OC(C)=O)C[C@]2(C)C(=O)CC[C@@H]12)CC=C [Sonolisib] (1000 nM) — higher, 106%
- CC(C)n1cnc2c(NCCc3ccc(O)cc3)nc(-c3csc4ccccc34)nc21 [StemRegenin 1] (1 nM) — higher, 102%
- CC(C)n1cnc2c(NCCc3ccc(O)cc3)nc(-c3csc4ccccc34)nc21 [StemRegenin 1] (10 nM) — higher, 105%

System: MDA-MB-231
Experiment: as above
Conditions: incubation time: 72 h
Outline: as §1

Point of comparison: `CN[C@@H](C)C(=O)N[C@H]1CN(C(=O)CC(C)C)CC[C@H]2CC[C@@H](C(=O)NC(c3ccccc3)c3ccccc3)N2C1=O` [AT-406] (1000 nM), normalised response 38.8%. Against it:
- CC1(COc2ccc3c(c2)ncn3-c2ccc3cccc(N4CCC(N)CC4)c3n2)COC1 [Crenolanib] (1000 nM) — higher, 122%
- CC(C)(C)c1nc(-c2cccc(NS(=O)(=O)c3c(F)cccc3F)c2F)c(-c2ccnc(N)n2)s1 [Dabrafenib] (250 nM) — higher, 106%
- Cc1nc(C(=O)NCC(=O)O)c(O)c2ccc(Oc3ccccc3)cc12 [FG-4592] (1000 nM) — higher, 102%
- CC[C@H](CO)Nc1nc(NCc2ccccc2)c2ncn(C(C)C)c2n1 [Seliciclib] (1000 nM) — higher, 104%
- C=CCN(/C=C1/C(=O)O[C@H](COC)[C@@]2(C)C1=C(O)C(=O)C1=C2[C@H](OC(C)=O)C[C@]2(C)C(=O)CC[C@@H]12)CC=C [Sonolisib] (1 nM) — higher, 109%
- C=CCN(/C=C1/C(=O)O[C@H](COC)[C@@]2(C)C1=C(O)C(=O)C1=C2[C@H](OC(C)=O)C[C@]2(C)C(=O)CC[C@@H]12)CC=C [Sonolisib] (10 nM) — higher, 102%
- C=CCN(/C=C1/C(=O)O[C@H](COC)[C@@]2(C)C1=C(O)C(=O)C1=C2[C@H](OC(C)=O)C[C@]2(C)C(=O)CC[C@@H]12)CC=C [Sonolisib] (1000 nM) — higher, 103%
- O=[N+]([O-])c1ccc2c(c1)S(=O)(=O)C=C2 [Stattic] (5 nM) — higher, 96.2%
- CC(C)n1cnc2c(NCCc3ccc(O)cc3)nc(-c3csc4ccccc34)nc21 [StemRegenin 1] (1 nM) — higher, 99.7%
- CC(C)n1cnc2c(NCCc3ccc(O)cc3)nc(-c3csc4ccccc34)nc21 [StemRegenin 1] (10 nM) — higher, 97.5%

System: CAL-85-1
Experiment: as above
Conditions: incubation time: 72 h
Outline: as §1

Point of comparison: `CC(C)n1cnc2c(NCCc3ccc(O)cc3)nc(-c3csc4ccccc34)nc21` [StemRegenin 1] (10 nM), normalised response 96.9%. Against it:
- CN[C@@H](C)C(=O)N[C@H]1CN(C(=O)CC(C)C)CC[C@H]2CC[C@@H](C(=O)NC(c3ccccc3)c3ccccc3)N2C1=O [AT-406] (1000 nM) — lower, 63.3%
- CC1(COc2ccc3c(c2)ncn3-c2ccc3cccc(N4CCC(N)CC4)c3n2)COC1 [Crenolanib] (1000 nM) — higher, 117%
- CC(C)(C)c1nc(-c2cccc(NS(=O)(=O)c3c(F)cccc3F)c2F)c(-c2ccnc(N)n2)s1 [Dabrafenib] (250 nM) — higher, 99.8%
- Cc1nc(C(=O)NCC(=O)O)c(O)c2ccc(Oc3ccccc3)cc12 [FG-4592] (1000 nM) — higher, 105%
- CC[C@H](CO)Nc1nc(NCc2ccccc2)c2ncn(C(C)C)c2n1 [Seliciclib] (1000 nM) — higher, 112%
- C=CCN(/C=C1/C(=O)O[C@H](COC)[C@@]2(C)C1=C(O)C(=O)C1=C2[C@H](OC(C)=O)C[C@]2(C)C(=O)CC[C@@H]12)CC=C [Sonolisib] (1 nM) — higher, 103%
- C=CCN(/C=C1/C(=O)O[C@H](COC)[C@@]2(C)C1=C(O)C(=O)C1=C2[C@H](OC(C)=O)C[C@]2(C)C(=O)CC[C@@H]12)CC=C [Sonolisib] (10 nM) — higher, 102%
- C=CCN(/C=C1/C(=O)O[C@H](COC)[C@@]2(C)C1=C(O)C(=O)C1=C2[C@H](OC(C)=O)C[C@]2(C)C(=O)CC[C@@H]12)CC=C [Sonolisib] (1000 nM) — higher, 105%
- O=[N+]([O-])c1ccc2c(c1)S(=O)(=O)C=C2 [Stattic] (5 nM) — lower, 95.5%
- CC(C)n1cnc2c(NCCc3ccc(O)cc3)nc(-c3csc4ccccc34)nc21 [StemRegenin 1] (1 nM) — higher, 99.2%

System: DU-4475
Experiment: as above
Conditions: incubation time: 72 h
Outline: as §1

Point of comparison: `CC(C)n1cnc2c(NCCc3ccc(O)cc3)nc(-c3csc4ccccc34)nc21` [StemRegenin 1] (10 nM), normalised response 100%. Against it:
- CN[C@@H](C)C(=O)N[C@H]1CN(C(=O)CC(C)C)CC[C@H]2CC[C@@H](C(=O)NC(c3ccccc3)c3ccccc3)N2C1=O [AT-406] (1000 nM) — higher, 101%
- CC1(COc2ccc3c(c2)ncn3-c2ccc3cccc(N4CCC(N)CC4)c3n2)COC1 [Crenolanib] (1000 nM) — lower, 96.2%
- CC(C)(C)c1nc(-c2cccc(NS(=O)(=O)c3c(F)cccc3F)c2F)c(-c2ccnc(N)n2)s1 [Dabrafenib] (250 nM) — lower, 8.24%
- Cc1nc(C(=O)NCC(=O)O)c(O)c2ccc(Oc3ccccc3)cc12 [FG-4592] (1000 nM) — higher, 103%
- CC[C@H](CO)Nc1nc(NCc2ccccc2)c2ncn(C(C)C)c2n1 [Seliciclib] (1000 nM) — higher, 101%
- C=CCN(/C=C1/C(=O)O[C@H](COC)[C@@]2(C)C1=C(O)C(=O)C1=C2[C@H](OC(C)=O)C[C@]2(C)C(=O)CC[C@@H]12)CC=C [Sonolisib] (1 nM) — higher, 103%
- C=CCN(/C=C1/C(=O)O[C@H](COC)[C@@]2(C)C1=C(O)C(=O)C1=C2[C@H](OC(C)=O)C[C@]2(C)C(=O)CC[C@@H]12)CC=C [Sonolisib] (10 nM) — higher, 106%
- C=CCN(/C=C1/C(=O)O[C@H](COC)[C@@]2(C)C1=C(O)C(=O)C1=C2[C@H](OC(C)=O)C[C@]2(C)C(=O)CC[C@@H]12)CC=C [Sonolisib] (1000 nM) — lower, 99%
- O=[N+]([O-])c1ccc2c(c1)S(=O)(=O)C=C2 [Stattic] (5 nM) — higher, 106%
- CC(C)n1cnc2c(NCCc3ccc(O)cc3)nc(-c3csc4ccccc34)nc21 [StemRegenin 1] (1 nM) — higher, 102%
